From US20090005395A1 (Solvay Pharmaceuticals, B.V., priority 2007, published 2009)
Where two headings read alike, the source gives them in different places.

What was measured:
PDE-V = PDE-V (Homo sapiens, UniProt O76074); conditions: cited from earlier work
[1] = in vivo; cited from earlier work
[2] = Plasma and brain concentrations of sildenafil and its N-oxide after i.v. or p.o. administration to mice (LC-MS/MS); type: in vivo, male NMRI mice; conditions: sildenafil administered i.v. or p.o.
Method: Sildenafil and its N-oxide were analyzed in mouse plasma and brain samples using a generic bioanalytical method comprising protein precipitation and HPLC with MS/MS detection.
Sample preparation: Proteins in 100 μl plasma were precipitated with acetonitrile, and 5 μl samples of the obtained solution were analyzed. Complete brains were homogenized and centrifuged, and 10 μl samples of the supernatant were analyzed.
Liquid Chromatography-Tandem Mass Spectrometry (LC-MS/MS) was performed using a Sciex API4000 LC-MS/MS. Quantification of the samples was done using extracted calibration samples, treated the same as the study samples in the range of 1-5000 ng/ml and 5.0-5000 ng/brain for plasma and brains samples, respectively. Compound peak area was used for quantification. The calibration curves were fitted to the model y=A+Bx+Cx^2 (y is the peak area of the analyte, x is the nominal calibration level in ng/ml (plasma) or ng/g (brain), A is the intercept, B is the slope and C is the description of the curvature). 1/x^2 weighing was used. LC-MS/MS system performance was monitored using a reference solution injected at standard intervals. The method use for testing was not validated in detail, therefore the reported concentrations were good estimations. The Lower Limit Of Quantification (LLOQ) was established at 1.00 ng/ml and 5.00 ng/brain, for plasma and brain samples, respectively. […]

CYP2C9 = CYP2C9 (Homo sapiens, UniProt P11712); conditions: cited from earlier work
Chain of CYP2C9 (P11712 whole entry): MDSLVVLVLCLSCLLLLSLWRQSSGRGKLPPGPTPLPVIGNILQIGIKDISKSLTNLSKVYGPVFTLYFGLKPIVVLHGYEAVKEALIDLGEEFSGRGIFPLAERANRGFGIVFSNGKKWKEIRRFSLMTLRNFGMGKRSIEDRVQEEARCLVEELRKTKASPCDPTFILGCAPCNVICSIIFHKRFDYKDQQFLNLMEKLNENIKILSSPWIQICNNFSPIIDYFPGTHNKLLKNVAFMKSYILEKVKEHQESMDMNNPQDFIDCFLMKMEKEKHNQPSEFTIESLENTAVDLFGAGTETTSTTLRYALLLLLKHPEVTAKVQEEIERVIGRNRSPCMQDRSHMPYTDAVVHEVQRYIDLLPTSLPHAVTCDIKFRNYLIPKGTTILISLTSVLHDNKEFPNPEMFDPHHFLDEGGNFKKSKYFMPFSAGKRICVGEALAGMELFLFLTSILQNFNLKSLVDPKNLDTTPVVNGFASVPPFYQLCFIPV

CYP3A4 = CYP3A4 (Homo sapiens, UniProt P08684); conditions: cited from earlier work
Chain of CYP3A4 (P08684 whole entry): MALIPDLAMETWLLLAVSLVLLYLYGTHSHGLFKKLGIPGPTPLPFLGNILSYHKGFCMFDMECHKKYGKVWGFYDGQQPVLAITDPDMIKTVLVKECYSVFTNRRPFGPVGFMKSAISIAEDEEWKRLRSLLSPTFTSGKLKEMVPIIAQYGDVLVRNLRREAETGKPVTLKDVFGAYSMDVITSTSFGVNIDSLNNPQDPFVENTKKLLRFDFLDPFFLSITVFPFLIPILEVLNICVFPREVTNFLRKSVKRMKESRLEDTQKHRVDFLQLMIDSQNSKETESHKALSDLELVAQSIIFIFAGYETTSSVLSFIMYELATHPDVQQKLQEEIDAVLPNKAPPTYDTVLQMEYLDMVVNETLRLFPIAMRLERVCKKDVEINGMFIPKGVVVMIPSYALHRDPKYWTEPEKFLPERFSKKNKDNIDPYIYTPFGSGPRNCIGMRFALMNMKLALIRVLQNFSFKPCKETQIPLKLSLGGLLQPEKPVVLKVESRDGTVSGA

PDE-I = assay: In vitro inhibition of phosphodiesterases (CEREP): PDE-I; conditions: bovine brain
PDE-IV = assay: In vitro inhibition of phosphodiesterases (CEREP): PDE-IV; conditions: human U-937 monocytes
[3] = Plasma pharmacokinetics of sildenafil and its N-oxide; type: in vivo; conditions: male, NMRI, mouse, mice, plasma; for AUC: Tend = 7 hrs, read-out: AUC0→end; for AUC(0-inf): Tend = ∞
Method: Liquid Chromatography-Tandem Mass Spectrometry (LC-MS/MS) was performed using a Sciex API4000 LC-MS/MS. […] Compound peak area was used for quantification. The calibration curves were fitted to the model y=A+Bx+Cx^2 (y is the peak area of the analyte, x is the nominal calibration level in ng/ml (plasma) or ng/g (brain), A is the intercept, B is the slope and C is the description of the curvature). 1/x^2 weighing was used. LC-MS/MS system performance was monitored using a reference solution injected at standard intervals. […] The Lower Limit Of Quantification (LLOQ) was established at 1.00 ng/ml and 5.00 ng/brain, for plasma and brain samples, respectively. Reversed phase HPLC was performed using gradient elution by a Hypersil BDS C18 100×4.6 mm 3 μm analytical column, with a temperature of 45° C. and a flow of 1.00 ml/min: […]

CCCc1nn(C)c2c(=O)[nH]c(-c3cc(S(=O)(=O)N4CCNCC4)ccc3OCC)nc12 [UK 103,320, 1-[[3-(6,7-dihydro-1-methyl-7-oxo-3-propyl-1H-pyrazolo[4,3-d]pyrimidin-5-yl)-4-ethoxy-phenyl]sulfonyl]-piperazine]
in vitro potency for PDE-V relative to the parent drug (PDE-V; of sildenafil): approximately 50% | potency relative to sildenafil (PDE-V; reported): about half | Plasma concentrations of the metabolite relative to those seen for sildenafil [1]: approximately 40%

CCCc1nn(C)c2c(=O)[nH]c(-c3cc(S(=O)(=O)N4CCN(C)CC4)ccc3OCC)nc12 [Sildenafil, 1-[4-ethoxy-3-(6,7-dihydro-1-methyl-7-oxo-3-propyl-1H-pyrazolo[4,3-d]pyrimidin-5-yl)phenyl-sulfonyl]-4-methylpiperazine, reference compound]
N-oxide in the brain [2]: no trace can be found at all | more potent on PDE-V than on PDE-1 (PDE-V; in vitro, versus PDE-1): > 80 fold | more potent on PDE-V than on PDE-II (PDE-V; in vitro, versus PDE-II): > 700 fold | more potent on PDE-V than on PDE-IV (PDE-V; in vitro, versus PDE-IV): > 700 fold | more potent on PDE-V than on PDE-IX (PDE-V; in vitro, versus PDE-IX): > 700 fold | more potent on PDE-V than on PDE-VI (PDE-V; in vitro, versus PDE-VI): about 10 fold | more potent on PDE-V than on PDE-VII (PDE-V; in vitro, versus PDE-VII): > 700 fold | more potent on PDE-V than on PDE-VIII (PDE-V; in vitro, versus PDE-VIII): > 700 fold | more potent on PDE-V than on PDE-X (PDE-V; in vitro, versus PDE-X): > 700 fold | more potent on PDE-V than on PDE-XI (PDE-V; in vitro, versus PDE-XI): > 700 fold | clearance route by hepatic microsomal iso-enzyme CYP2C9 (CYP2C9): minor route | clearance route by hepatic microsomal iso-enzyme CYP3A4 (CYP3A4): major route | pIC50 PDE-I (PDE-I): 5.0 | pIC50 PDE-IV (PDE-IV): 4.8 | Tmax ([3]; iv, i.v. 1 mg/kg): 0 h | half-life ([3]; iv, i.v. 1 mg/kg): 1.4 h | AUC ([3]; iv, i.v. 1 mg/kg): 232 ng·h/mL | AUC(0-inf) ([3]; iv, i.v. 1 mg/kg): 232 ng·h/mL | Cmax ([3]; iv, i.v. 1 mg/kg, extrapolated to T0 (time zero), read-out: Cmax (C0)): 538 ng/mL | Vd ([3]; iv, i.v. 1 mg/kg): 8.9 L/kg | clearance ([3]; iv, i.v. 1 mg/kg): 71.8 mL/min/kg | bioavailability ([3]; po, 10 mg/kg, i.v.): 28.9% | Tmax ([3]; po, p.o. 10 mg/kg): 0.2 h | half-life ([3]; po, p.o. 10 mg/kg): 1.1 h | AUC ([3]; po, p.o. 10 mg/kg): 661 ng·h/mL | AUC(0-inf) ([3]; po, p.o. 10 mg/kg): 670 ng·h/mL | Cmax ([3]; po, p.o. 10 mg/kg, read-out: Cmax): 533 ng/mL
